Measurements from patent US20140213538A1, “LYSOPHOSPHATIDIC ACID RECEPTOR ANTAGONISTS” (InterMune, Inc., priority 2013, published 2014).
pEC50, pIC50: −log10 of the molar value.

Tests used:
Format in all cases: cell-based
LPA1 [1] = target: T1, LPA1 (Homo sapiens, UniProt Q92633); assay: Ca Flux LPA1 assay; design: the full-length cDNA for human LPA1 is obtained by PCR of the reverse transcription reaction; expressed in transfected cells
LPA1 [2] = target: T1, LPA1; assay: LPA1 Migration Assay (Oris); design: host or cells: primary fibroblasts (lung, dermal), HFL-1, 3T3 and CHO cells expressing LPA1R; conditions: read-out: Cell Migration EC50
Summary of the method: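 Antagonist inhibition was derived by 4-parameter logistic fitting of migrated-cell counts against compound concentration. Dye-loaded, 12-24 h serum-starved fibroblasts, HFL-1, 3T3 or CHO cells expressing LPA1R moved into an Oris detection zone in response to LPA or serum, then were fixed and counted on a high-content reader.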

LPA/S1P GPCR of interest = target: T2, LPA/S1P GPCR of interest (Homo sapiens, UniProt Q92633); assay: Beta-Arrestin based assay (PathHunter)
T2 construct: host or cells: CHO
T2 sequence (Q92633 whole entry): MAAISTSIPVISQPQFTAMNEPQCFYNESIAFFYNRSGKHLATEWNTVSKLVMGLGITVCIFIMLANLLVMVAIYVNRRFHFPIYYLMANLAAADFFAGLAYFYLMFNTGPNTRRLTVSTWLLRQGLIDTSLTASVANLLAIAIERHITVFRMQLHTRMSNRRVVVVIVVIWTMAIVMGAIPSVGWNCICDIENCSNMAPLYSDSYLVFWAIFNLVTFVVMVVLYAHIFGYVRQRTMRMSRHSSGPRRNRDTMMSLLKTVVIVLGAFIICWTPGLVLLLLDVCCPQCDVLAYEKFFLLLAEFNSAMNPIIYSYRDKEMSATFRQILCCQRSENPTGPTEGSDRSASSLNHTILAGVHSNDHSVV
Summary of the method: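 EA Parental CHO cells (DiscoverX) were transfected with FuGENE (Roche) using CMV promoter-driven DNA constructs encoding the LPA/S1P GPCR of interest fused to a ProLink tag. Beta-arrestin recruitment in agonist mode was assessed 24-48 hrs later with PathHunter kits. Tests ran in quadruplicate in white 384 well plates, and end point luminescence was fit to a 4 parameter logistic function.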

T1 sequence (Q92633 whole entry): as above

Compound | pIC50 (LPA1 [1]) | pEC50 (LPA1 [2]) | pEC50 (LPA/S1P GPCR of interest)
C[C@@H](OC(=O)Nc1c(-c2ccc(-c3ccc(C4(C(=O)O)CC4)s3)cc2)nnn1C)c1ccccc1 [IT236] | > 7.30 | 6.30 to 7.30 | > 7.30
Cc1nsc(-c2ccc(-c3cc(F)c(Oc4ncccc4C(=O)O)c(F)c3)cc2)c1NC(=O)O[C@H](C)c1ccccc1 [IT451] | 6.30 to 7.30 | > 7.30 | > 7.30
Cc1noc(-c2ccc(-c3ccc(Oc4ccccc4C(=O)O)cc3)cc2)c1NC(=O)O[C@H](C)c1ccccc1 [IT155] | 6.30 to 7.30 | > 7.30 | > 7.30
C[C@@H](OC(=O)Nc1c(-c2cc3sc(C#CC4(C(=O)O)CC4)cc3s2)cnn1C)c1ccccc1 [IT126] | > 7.30 | 6.30 to 7.30 | > 7.30
C[C@@H](OC(=O)Nc1c(-c2cc3sc(-c4ccc(C5(C(=O)O)CC5)cc4)cc3s2)cnn1C)c1ccccc1 [IT119] | < 6.30 | 6.30 to 7.30 | > 7.30
Cc1noc(-c2ccc(-c3cc(F)c(Oc4cccnc4C(=O)O)c(F)c3)cc2)c1NC(=O)O[C@H](C)c1ccccc1 [IT435] | > 7.30 | > 7.30 | > 7.30
Cc1nsc(-c2cc3sc(-c4ccc(C5(C(=O)O)CC5)cc4)cc3s2)c1NC(=O)O[C@H](C)c1ccccc1 [IT120] | < 6.30 | 6.30 to 7.30 | > 7.30
